Assay results from patent publication US20190059368A1, “3,5-DIMETHOXYSTILBENE ANALOGS AND USES THEREOF” (The United States of America, as represented by the …, priority 2017, published 2019).
Values after ≈ are worked out from the molar mass of the structure shown. Like-named read-outs stand apart in the source and are kept apart here. Marks after values point to notes of the source that are not given here.

Legend:
Colletotrichum species = test: Direct bioautography, antifungal (overall statement); type: cell-based, Colletotrichum sp.
Description: (§1) The analogs were tested for activity against Colletotrichum acutatum SIMMONDS, C. fragariae BROOKS, and C. gloeosporioides (PENZ) PENZ & SACC. in Penz., using a direct bioautography method as previously described by Tabanca et al. (Nat. Prod. Commun. 2008, 3, 1073) and Wang, et al. (J. Agric. Food Chem. 2013, 61, 4551). Technical grade commercial fungicide standards benomyl, cyprodinil, azoxystrobin, and captan were used at 0.9-1.61 μg/μl concentrations in 95% EtOH. After sample application, each TLC plate was subsequently sprayed with a spore suspension (3.0×10^5 spores/ml) of the fungus of interest and incubated in a moisture chamber for 4 days at 26° C. with a 12 hour photoperiod. Clear zones of fungal growth inhibition on the TLC plate indicated the presence of antifungal constituents in each extract or pure compound. The test compounds were prepared at 2 mM soln. in 95% EtOH, and 4 μl were spotted on the plates (2 μl of the positive controls).

C. gloeosporioides = test: Direct bioautography, antifungal; type: cell-based, Colletotrichum gloeosporioides; conditions: Colletotrichum gloeosporioides; 2 mM; 4 μl spotted (2 μl of the positive controls); average of 2 assays; read-out: zones of inhibition
Description: as §1

C. fragariae = test: Direct bioautography, antifungal; type: cell-based, Colletotrichum fragariae; conditions: Colletotrichum fragariae; 2 mM; 4 μl spotted (2 μl of the positive controls); average of 2 assays; read-out: zones of inhibition
Description: as §1

Colletotrichum acutatum = test: Direct bioautography, antifungal; type: cell-based; conditions: Colletotrichum acutatum; 2 mM; 4 μl spotted (2 μl of the positive controls); average of 2 assays; read-out: zones of inhibition
Description: as §1

[1] = system: adults of ORL and PR strains of Ae. aegypti; test: Adult mosquito assay, ORL and PR strains; type: in vivo; conditions: both strains
Description: (§2) Further tests were performed on compounds 11 and 12 to determine their effect on larvae and adult mosquitoes. The compounds were tested in the standard bioassays using the Orlando (ORL), pesticide-susceptible strain and the Puerto Rico (PR), pyrethroid-resistant strain of Ae. aegypti. The ORL strain has been in continuous colony since 1952 with no pesticide exposure while the resistant PR strain was colonized from egg papers collected near San Juan, PR in June, 2012. The PR strain is available as a resistant reference strain through BEIResources/CDC. Mortality was determined in the larval assays at four different concentrations (1, 0.5, 0.25, and 0.1 μg/μl) and three concentrations for adults (6.25%, 3.125%, and 1.56%). Mortality was recorded 24 h post-application, and in all assays, a negative solvent and a positive control using permethrin were utilized; tests were done in triplicate. Assays were conducted according to published procedures as described in Wanner, J. et al. (Curr. Bioact. Compd. 2015, 11, 13).

Ae. aegypti larvae = test: Larvicidal bioassay against 1-day-old Ae. aegypti larvae (screening and dose-response); type: in vivo, Aedes aegypti
Description: Analogs were screened for activity against Ae. aegypti larvae following a bioassay system described in Ali, A., et al. (J. Med. Entomol. 2014, 51, 824). Ae. aegypti larvae used in these studies were from a laboratory colony maintained at the Mosquito and Fly Research Unit at the Center for Medical, Agricultural and Veterinary Entomology, USDA-ARS, Gainesville, Fla. For larval bioassays, the eggs were hatched and the larvae were maintained at a temperature of 27±2° C. and 60±10% RH with a photoperiod regimen of 12:12 hour (Light:Dark). Five 1-day-old Ae. aegypti larvae were added into a droplet of H2O to each well of 24-well plates (BD Labware, Franklin Lakes, N.J., USA) by use of a disposable 22.5-cm Pasteur pipette. A quantity of 50 μl of larval diet (2% slurry of 3:2 beef liver powder (Now Foods, Bloomingdale, Ill., USA) and Brewer's yeast (Lewis Laboratories Ltd., Westport, Conn., USA) was added to each well using a Finnpipette stepper (Thermo Fisher, Vantaa, Finland). All chemicals tested were diluted in DMSO. A quantity of 11 μl of the test chemical was added to the labeled wells, while 11 μl of DMSO was added to control treatments. After the treatment application, the plates were swirled in clockwise and counterclockwise motions and front and back and side to side five times to ensure even mixing of the chemicals. Larval mortality was recorded 24 hours post-treatment. […] Three dosages, 100, 50, and 25 ppm, were used in the screening bioassay to determine the larvicidal activity and each treatment was replicated twice. […] Each treatment was replicated ten times. LC50 Values for larvicidal data were calculated using SAS, Proc Probit. Control mortality was corrected using the Abbott's formula.

[2] = system: Staphylococcus aureus ATCC 29213; test: Antimicrobial microplate assay (modified CLSI); type: cell-based; conditions: ATCC29213, S. aureus
Description: (§3) All organisms were obtained from the American Type Culture Collection (ATCC; Manassas, Va., USA) and included the fungi Cryptococcus neoformans ATCC 90113 and the bacteria Staphylococcus aureus ATCC 29213, methicillin-resistant S. aureus ATCC 33591 (MRSA), and Mycobacterium intracellulare ATCC 23068. All organisms were tested using modified versions of the CLSI (formerly NCCLS) methods. For all organisms excluding My. intracellulare, optical density was used to monitor growth. Medium supplemented with 5% AlamarBlue® (BioSource International, Camarillo, Calif., USA) was utilized for growth detection of My. intracellulare. Samples (dissolved in DMSO) were serially diluted in 20% DMSO/saline and transferred (10 μl) in duplicate to 96-well flat-bottom microplates. Inocula were prepared by correcting the OD630 of microbe suspensions in Sabouraud Dextrose for Cr. neoformans, cation-adjusted Mueller-Hinton (Difco) at pH 7.3 for Staphylococcus spp., and 5% AlamarBlue® (BioSource International) in Middlebrook 7H9 broth with OADC enrichment, pH=7.0 for My. intracellulare, to afford an assay volume of 200 μl and final target inocula of: Cr. neoformans.: b 1.5×10^3, My. intracellulare: 2.0×10^6, and Staphylococcus spp.,: 5.0×10^5 CFU/ml. Final sample test concentrations were 1/100th the DMSO stock concentration. […] All organisms were read at either 530 nm using the Biotek Powerwave XS plate reader (Bio-Tek Instruments, VT) or 544ex1590em (My. intracellulare) using the Polarstar Galaxy Plate Reader (BMG LabTechnologies, Germany) before and after incubation: Staphylococcus spp. at 35° C. for 16-20 h, Cr. neoformans at 35° C. for 70-74 h, and My. intracellulare at 37° C. and 10% CO2 for 70-74 h. IC50 Values (concentrations that afford 50% inhibition relative to controls) werecalculated using XLfit 4.2 software (IDBS, Alameda, Calif.) using fit model 201.

[3] = system: methicillin-resistant S. aureus ATCC 33591 (MRSA); test: Antimicrobial microplate assay (modified CLSI); type: cell-based; conditions: Staphylococcus aureus
Description: as §3

[4] = system: Cryptococcus neoformans ATCC 90113; test: Antimicrobial microplate assay (modified CLSI); type: cell-based; conditions: Cryptococcus neoformans, ATCC90113; Cr. neoformans
Description: All organisms were obtained from the American Type Culture Collection (ATCC; Manassas, Va., USA) and included the fungi Cryptococcus neoformans ATCC 90113 and the bacteria Staphylococcus aureus ATCC 29213, methicillin-resistant S. aureus ATCC 33591 (MRSA), and Mycobacterium intracellulare ATCC 23068. All organisms were tested using modified versions of the CLSI (formerly NCCLS) methods. For all organisms excluding My. intracellulare, optical density was used to monitor growth. Medium supplemented with 5% AlamarBlue® (BioSource International, Camarillo, Calif., USA) was utilized for growth detection of My. intracellulare. Samples (dissolved in DMSO) were serially diluted in 20% DMSO/saline and transferred (10 μl) in duplicate to 96-well flat-bottom microplates. Inocula were prepared by correcting the OD630 of microbe suspensions in Sabouraud Dextrose for Cr. neoformans, cation-adjusted Mueller-Hinton (Difco) at pH 7.3 for Staphylococcus spp., and 5% AlamarBlue® (BioSource International) in Middlebrook 7H9 broth with OADC enrichment, pH=7.0 for My. intracellulare, to afford an assay volume of 200 μl and final target inocula of: Cr. neoformans.: b 1.5×10^3, My. intracellulare: 2.0×10^6, and Staphylococcus spp.,: 5.0×10^5 CFU/ml. Final sample test concentrations were 1/100th the DMSO stock concentration. Drug controls (Ciprofloxacin (ICN Biomedicals, Ohio, USA) for bacteria and Amphotericin B (ICN Biomedicals) for fungi) were included in each assay. All organisms were read at either 530 nm using the Biotek Powerwave XS plate reader (Bio-Tek Instruments, VT) or 544ex1590em (My. intracellulare) using the Polarstar Galaxy Plate Reader (BMG LabTechnologies, Germany) before and after incubation: Staphylococcus spp. at 35° C. for 16-20 h, Cr. neoformans at 35° C. for 70-74 h, and My. intracellulare at 37° C. and 10% CO2 for 70-74 h. IC50 Values (concentrations that afford 50% inhibition relative to controls) werecalculated using XLfit 4.2 software (IDBS, Alameda, Calif.) using fit model 201.

[5] = system: larvae of ORL and PR strains of Ae. aegypti; type: in vivo; conditions: for Percent Mortality: larvae, 24 h
Description: as §2

[6] = system: Mycobacterium intracellulare ATCC 23068; test: Antimicrobial microplate assay (modified CLSI, AlamarBlue); type: cell-based; conditions: ATCC23068, My. intracellulare
Description: as §3

[7] = 1-day-old larvae, mortality 24 hours post-treatment

For `COc1cc(/C=C/c2ccccc2)cc(OC)c1C` [Compound 6a, (E)-1,3-dimethoxy-2-methyl-5-styrylbenzene], the “inhibitory effect on Colletotrichum species (in words)” value (shortened to “inhibitory effect”) (Colletotrichum species) was “strong inhibitory effect”, the zone of inhibition at 2000 µM (C. gloeosporioides) was 5.5 mm and the zone of inhibition at 2000 µM (C. fragariae) was 5 mm. The zone of inhibition at 2000 µM (Colletotrichum acutatum) was 5 mm.

For `COc1cc(/C=C\c2ccccc2)cc(OC)c1C` [Compound 7a, (Z)-1,3-dimethoxy-2-methyl-5-styrylbenzene], the “inhibitory effect” value (Colletotrichum species) was “strong inhibitory effect”, the zone of inhibition at 2000 µM (C. gloeosporioides) was 7 mm and the zone of inhibition at 2000 µM (C. fragariae) was 6.5 mm. The zone of inhibition at 2000 µM (Colletotrichum acutatum) was 8 mm.

For `COc1cc(/C=C\c2ccc(F)cc2)cc(OC)c1C` [Compound 7e, (Z)-1,3-dimethoxy-5-(4-fluorostyryl)-2-methylbenzene], the “inhibitory effect” value (Colletotrichum species) was “strong inhibitory effect”, the zone of inhibition at 2000 µM (C. gloeosporioides) was 6 mm and the zone of inhibition at 2000 µM (C. fragariae) was 6 mm. The zone of inhibition at 2000 µM (Colletotrichum acutatum) was 6 mm.

With `COc1cc(/C=C\c2ccc(O)c(CC=C(C)C)c2)cc(OC)c1` [Compound 12, (Z)-4-(3,5-dimethoxystyryl)-2-(3-methylbut-2-en-1-yl)phenol] the “effectiveness against adult mosquitoes (in words)” value [1] was “somewhat effective”, the “LC50 (LD50 converted to μM)” value (Ae. aegypti larvae; 1-day-old larvae, 24 hours) was 49.93 µM and the “LD50 (95% CI)” value (Ae. aegypti larvae; [7]) was 16.2^b ppm. The “LD90 (95% CI)” value (Ae. aegypti larvae; [7]) was 37.9 ppm, the “larvicidal activity (in words)” value (Ae. aegypti larvae; screening at 100, 50 and 25 ppm) was “high larvicidal activity” and the IC50 [2] was 17 µM. It also gave an MIC [2] of 30.8 µM (≈ 10 µg/mL), an IC50 [3] of 13 µM and an MIC [3] of 30.8 µM (≈ 10 µg/mL). For the same compound, the IC50 [4] was 41.8 µM, the MIC [4] was 61.7 µM (≈ 20 µg/mL) and the “effectiveness against larvae (in words)” value ([5]; ORL and PR strains) was “highly effective”. For the same compound, the “Percent Mortality” value ([5]; ORL strain, 0.1 μg/μl) was 66.7 ± 23.1%, the “Percent Mortality” value ([5]; ORL strain, 0.25 μg/μl) was 93.3 ± 11.5% and the “Percent Mortality” value ([5]; ORL strain, 0.5 μg/μl) was 93.3 ± 11.5%. The “Percent Mortality” value ([5]; ORL strain, 1.0 μg/μl) was 93.3 ± 11.5%, the “Percent Mortality” value ([5]; PR strain, 0.1 μg/μl) was 73.3 ± 11.5% and the “Percent Mortality” value ([5]; PR strain, 0.25 μg/μl) was 73.3 ± 11.5%. The “Percent Mortality” value ([5]; PR strain, 0.5 μg/μl) was 93.3 ± 11.5%, the “Percent Mortality” value ([5]; PR strain, 1.0 μg/μl) was 93.3 ± 11.5% and the IC50 [6] was 50.4 µM. The MIC [6] was 61.7 µM (≈ 20 µg/mL).
